# From patent US20260027116A1, “Methods of Treating Chronic Graft-Versus-Host Disease Following Allogeneic Hematopoietic Stem Cell Transplantation” (Kadmon Corporation, LLC, priority 2022, published 2026)
# What was measured:
# [1] = test system: cGVHD; experiment: Example 1: corticosteroid and calcineurin inhibitor dose change; type: in vivo, human
# Procedure: Progression was defined per the 2014 NIH cGVHD Consensus Criteria. Long-term follow-up was conducted every 8 weeks until study closeout. […] Screening was conducted within 28 days of the first study dose. Response was initially assessed after two cycles; however, this was amended to evaluate response on day 1 of each cycle, starting at cycle 2 day 1.
# Change from Baseline in Corticosteroids Dose. An EOT visit was performed within 3 days after the participant's last dose of study drug. Baseline value was defined as valid and last non-missing value obtained within 28 days prior to participant receiving first study medication. The mITT population was analyzed, with the ‘overall number of participants analyzed’=participants with available data for this outcome measure.
# Change from Baseline in Calcineurin Inhibitor (CNI). Calcineurin inhibitors included systemic tacrolimus and cyclosporine. Number of participants who took CNI at Baseline and had reduction and discontinuation in CNI use as compared to Baseline during the study are reported in this outcome measure. EOT visit was performed within 3 days after the participant's last dose of study drug. Baseline value was defined as valid and last non-missing value obtained within 28 days prior to participant receiving first study medication.
# [2] = target: T1, UGT1A9 (Homo sapiens, UniProt O60656); experiment: metabolism in vitro; type: in vitro ADME
# T1 sequence (O60656 26-530): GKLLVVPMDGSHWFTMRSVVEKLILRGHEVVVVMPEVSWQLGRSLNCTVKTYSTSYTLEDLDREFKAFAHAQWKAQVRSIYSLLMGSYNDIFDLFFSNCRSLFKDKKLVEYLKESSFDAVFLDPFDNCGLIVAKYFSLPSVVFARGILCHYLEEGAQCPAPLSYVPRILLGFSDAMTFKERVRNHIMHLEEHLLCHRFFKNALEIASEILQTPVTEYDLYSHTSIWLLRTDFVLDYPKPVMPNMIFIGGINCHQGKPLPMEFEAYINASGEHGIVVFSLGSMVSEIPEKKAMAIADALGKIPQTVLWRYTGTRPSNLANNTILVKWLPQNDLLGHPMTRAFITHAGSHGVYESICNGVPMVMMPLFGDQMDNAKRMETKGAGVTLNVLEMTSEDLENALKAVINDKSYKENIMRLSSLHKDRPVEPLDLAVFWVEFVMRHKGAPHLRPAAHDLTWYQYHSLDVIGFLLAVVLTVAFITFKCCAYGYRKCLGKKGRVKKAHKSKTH
# [3] = pharmacokinetics in chronic GVHD patients; type: in vivo, human; conditions: 200 and 400 mg
# [4] = target: T2, CYP1A2 (Homo sapiens, UniProt P05177); experiment: enzyme inhibition in vitro; type: in vitro ADME
# T2 sequence (P05177 1-516): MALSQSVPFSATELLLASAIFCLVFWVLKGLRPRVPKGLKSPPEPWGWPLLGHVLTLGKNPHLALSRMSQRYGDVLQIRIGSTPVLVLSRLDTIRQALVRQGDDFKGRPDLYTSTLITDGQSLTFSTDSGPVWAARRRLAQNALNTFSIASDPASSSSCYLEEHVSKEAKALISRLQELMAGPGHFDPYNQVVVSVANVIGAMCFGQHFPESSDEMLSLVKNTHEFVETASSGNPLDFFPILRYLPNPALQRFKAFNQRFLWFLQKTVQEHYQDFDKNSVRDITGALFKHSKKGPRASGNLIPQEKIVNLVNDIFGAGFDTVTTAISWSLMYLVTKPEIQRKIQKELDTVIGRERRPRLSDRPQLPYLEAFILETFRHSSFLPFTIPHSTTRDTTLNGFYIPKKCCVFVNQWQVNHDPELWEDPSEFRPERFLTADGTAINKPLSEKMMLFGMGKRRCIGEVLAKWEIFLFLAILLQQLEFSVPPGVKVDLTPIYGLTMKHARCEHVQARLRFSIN
# [5] = target: CYP2D6 (Homo sapiens, UniProt P10635); experiment: enzyme inhibition in vitro; type: in vitro ADME
# Sequence of CYP2D6 (P10635 whole entry): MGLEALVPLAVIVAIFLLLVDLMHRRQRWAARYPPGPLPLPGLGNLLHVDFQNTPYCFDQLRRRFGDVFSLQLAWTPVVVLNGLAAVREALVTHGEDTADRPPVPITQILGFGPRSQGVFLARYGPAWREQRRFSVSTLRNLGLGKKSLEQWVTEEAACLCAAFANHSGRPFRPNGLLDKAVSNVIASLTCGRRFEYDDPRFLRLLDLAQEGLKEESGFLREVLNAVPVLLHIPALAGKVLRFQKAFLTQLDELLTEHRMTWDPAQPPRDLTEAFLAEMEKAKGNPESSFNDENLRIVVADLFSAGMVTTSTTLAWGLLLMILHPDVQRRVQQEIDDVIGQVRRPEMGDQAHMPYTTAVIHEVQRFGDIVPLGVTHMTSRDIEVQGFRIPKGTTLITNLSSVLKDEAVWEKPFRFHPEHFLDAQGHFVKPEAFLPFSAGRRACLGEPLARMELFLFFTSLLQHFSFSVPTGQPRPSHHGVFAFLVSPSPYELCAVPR
# [6] = target: P-gp (Homo sapiens, UniProt P08183); experiment: transporter inhibition in vitro; type: in vitro ADME; conditions: at clinically relevant concentrations
# Sequence of P-gp (P08183 whole entry): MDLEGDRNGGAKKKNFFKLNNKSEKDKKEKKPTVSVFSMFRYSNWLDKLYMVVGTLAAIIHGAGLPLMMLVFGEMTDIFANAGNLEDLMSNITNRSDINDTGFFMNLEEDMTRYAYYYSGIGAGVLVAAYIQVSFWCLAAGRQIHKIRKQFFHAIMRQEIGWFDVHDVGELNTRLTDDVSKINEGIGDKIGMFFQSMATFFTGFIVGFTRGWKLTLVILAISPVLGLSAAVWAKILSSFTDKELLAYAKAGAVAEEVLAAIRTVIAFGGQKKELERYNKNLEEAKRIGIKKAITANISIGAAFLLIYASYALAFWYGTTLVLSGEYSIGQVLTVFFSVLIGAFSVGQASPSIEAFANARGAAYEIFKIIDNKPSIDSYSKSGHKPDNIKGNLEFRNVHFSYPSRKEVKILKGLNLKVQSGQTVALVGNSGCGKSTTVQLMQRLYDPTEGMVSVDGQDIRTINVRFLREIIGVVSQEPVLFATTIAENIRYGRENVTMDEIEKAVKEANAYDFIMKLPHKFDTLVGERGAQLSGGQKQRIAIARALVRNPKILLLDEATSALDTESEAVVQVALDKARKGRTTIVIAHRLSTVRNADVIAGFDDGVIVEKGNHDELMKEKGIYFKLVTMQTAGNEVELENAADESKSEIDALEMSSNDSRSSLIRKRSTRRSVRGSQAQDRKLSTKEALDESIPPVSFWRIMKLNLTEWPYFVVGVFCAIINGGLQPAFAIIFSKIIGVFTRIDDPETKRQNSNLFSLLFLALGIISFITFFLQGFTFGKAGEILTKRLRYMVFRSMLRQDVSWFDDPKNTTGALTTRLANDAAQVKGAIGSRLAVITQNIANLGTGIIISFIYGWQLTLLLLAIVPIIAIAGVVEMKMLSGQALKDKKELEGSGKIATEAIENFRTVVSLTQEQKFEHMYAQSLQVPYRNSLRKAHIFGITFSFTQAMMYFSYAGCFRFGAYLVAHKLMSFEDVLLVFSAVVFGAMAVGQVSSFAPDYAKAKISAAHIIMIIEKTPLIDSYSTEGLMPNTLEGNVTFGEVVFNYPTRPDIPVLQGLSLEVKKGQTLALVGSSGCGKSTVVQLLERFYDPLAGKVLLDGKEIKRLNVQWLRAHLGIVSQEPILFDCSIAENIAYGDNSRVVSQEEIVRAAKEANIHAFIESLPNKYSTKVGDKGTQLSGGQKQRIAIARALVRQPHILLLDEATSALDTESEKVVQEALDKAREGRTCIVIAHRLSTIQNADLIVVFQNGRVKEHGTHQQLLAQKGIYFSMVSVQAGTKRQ
structure (smiles),measurement,setting,value
"CC(C)NC(=O)COc1cccc(-c2nc(Nc3ccc4[nH]ncc4c3)c3ccccc3n2)c1 [Belumosudil, 2-{3-[4-(1H-indazol-5-ylamino)-2-quinazolinyl]phenoxy}-N-(propan-2-yl) acetamide]","Change From Baseline in Corticosteroids Dose, mean (SD)",[1]; Cohort 1 200 mg QD,−0.110 (0.101) milligrams per kilogram per day
same,"Participants who discontinued CNI, n (%)",[1]; Cohort 1 200 mg QD,0 (0%)
same,"Participants with reduction in CNI dose, n (%)",[1]; Cohort 1 200 mg QD,5 (83%)
same,"mean percent change in CS dose from baseline, nonresponder",[1]; Cohort 1 200 mg QD,−26%
same,"mean percent change in CS dose from baseline, overall",[1]; Cohort 1 200 mg QD,−50%
same,"mean percent change in CS dose from baseline, responder",[1]; Cohort 1 200 mg QD,−63%
same,"Change From Baseline in Corticosteroids Dose, mean (SD)",[1]; Cohort 2 200 mg BID,−0.111 (0.147) milligrams per kilogram per day
same,"Participants who discontinued CNI, n (%)",[1]; Cohort 2 200 mg BID,1 (17%)
same,"Participants with reduction in CNI dose, n (%)",[1]; Cohort 2 200 mg BID,5 (83%)
same,"mean percent change in CS dose from baseline, nonresponder",[1]; Cohort 2 200 mg BID,−37%
same,"mean percent change in CS dose from baseline, overall",[1]; Cohort 2 200 mg BID,−36%
same,"mean percent change in CS dose from baseline, responder",[1]; Cohort 2 200 mg BID,−36%
same,"Change From Baseline in Corticosteroids Dose, mean (SD)",[1]; Cohort 3 400 mg QD,−0.116 (0.152) milligrams per kilogram per day
same,"Participants who discontinued CNI, n (%)",[1]; Cohort 3 400 mg QD,3 (27%)
same,"Participants with reduction in CNI dose, n (%)",[1]; Cohort 3 400 mg QD,6 (55%)
same,"mean percent change in CS dose from baseline, nonresponder",[1]; Cohort 3 400 mg QD,−19%
same,"mean percent change in CS dose from baseline, overall",[1]; Cohort 3 400 mg QD,−47%
same,"mean percent change in CS dose from baseline, responder",[1]; Cohort 3 400 mg QD,−63%
same,median time to corticosteroid therapy discontinuation,[1]; Example 1,29 weeks
same,mean corticosteroid dose reduction,"[1]; Example 1, all patients",45%
same,mean corticosteroid dose reduction,"[1]; Example 1, nonresponders",26%
same,mean corticosteroid dose reduction,"[1]; Example 1, responders",55%
same,"mean percent change in CS dose from baseline, nonresponder","[1]; Total, N=54",−26%
same,"mean percent change in CS dose from baseline, overall","[1]; Total, N=54",−45%
same,"mean percent change in CS dose from baseline, responder","[1]; Total, N=54",−55%
same,"proportion with CS reduction, % (95% CI)","[1]; Total, N=54",67%
same,metabolism by UGT1A9,[2],to a lesser extent
same,dose dependence of Cmax and AUC,[3],approximately proportional
same,inhibition of CYP1A2,[4],inhibitor
same,inhibition of CYP2D6,[5],inhibitor
same,inhibition of P-gp,[6],inhibits
